ChEMBL document CHEMBL5236606, “Synthesis, Structure-Activity Relationships, and In Vivo Evaluation of Novel C-17 Amine Derivatives Based on GSK3640254 as HIV-1 Maturation Inhibitors with Broad Spectrum Activity” (J Med Chem, 2022)
In brackets after ≈: the same amount, converted by molar mass.

Experiments:
[1] = Volume of distribution at steady state in Sprague-Dawley rat at 1 mg/kg, iv by LC-MS/MS analysis; type: ADME, organism-based; conditions: in vivo, read-out: Vdss
[2] = Fold resistance, ratio of EC50 for antiviral activity against wild type HIV-1 NLRepRlucP373S infected in human MT2 cells assessed as inhibition of viral growth in presence of 10% FBS and 40% human serum supplemented with 27mg/mL of human serum albumin to EC50 for antiviral activity against wild type HIV-1 NLRepRlucP373S infected in human MT2 cells assessed as inhibition of viral growth; type: functional, Human immunodeficiency virus 1
[3] = Half life in Beagle dog at 1 mg/kg, iv by LC-MS/MS analysis; type: ADME, organism-based, Canis lupus familiaris; conditions: in vivo
[4] = AUCt in Beagle dog at 5 mg/kg, po administered as spray-dried dispersion in 99.5% water/0.5% methocel E4M by LC-MS/MS analysis; type: ADME, organism-based, Canis lupus familiaris; parameters: dose 5 mg/kg, route po; conditions: in vivo
[5] = MRT in Beagle dog at 1 mg/kg, iv by LC-MS/MS analysis; type: ADME, organism-based, Canis lupus familiaris; conditions: in vivo
[6] = test system: Human immunodeficiency virus 1; assay: Antiviral activity against wild type HIV-1 NLRepRlucP373S harboring V370A mutant infected in human MT2 cells assessed as inhibition of viral growth measured after 4 to 5 days by Dual luciferase reporter assay; type: functional, organism-based; conditions: Human immunodeficiency virus 1, NLRepRlucP373S
[7] = Oral bioavailability in Beagle dog at 5 mg/kg administered as spray-dried dispersion in 99.5% water/0.5% methocel E4M by LC-MS/MS analysis; type: ADME, organism-based, Canis lupus familiaris; conditions: in vivo
[8] = Cytotoxicity against human MT2 cells assessed as reduction in cell viability; type: toxicity, cell-based
[9] = Metabolic stability in dog liver microsomes assessed as half life at 0.5 uM in presence of NADPH by LC-MS/MS analysis; type: ADME, Canis lupus familiaris, Microsome
[10] = Metabolic stability in rat liver microsomes assessed as half life at 0.5 uM in presence of NADPH by LC-MS/MS analysis; type: ADME, Microsome
[11] = test system: Human immunodeficiency virus 1; assay: Antiviral activity against wild type HIV-1 NLRepRlucP373S harboring T332S/V362I/prR41G mutant infected in human MT2 cells assessed as inhibition of viral growth measured after 4 to 5 days by Dual luciferase reporter assay; type: functional, organism-based; conditions: Human immunodeficiency virus 1, NLRepRlucP373S
[12] = Cmax in Beagle dog at 5 mg/kg, po administered as solution in 98% citrate buffer/2% sulfobutylether-beta-cyclodextrin by LC-MS/MS analysis; type: ADME, organism-based, Canis lupus familiaris; parameters: dose 5 mg/kg, route po; conditions: in vivo
[13] = Oral bioavailability in Beagle dog at 5 mg/kg administered as solution in 98% citrate buffer/2% sulfobutylether-beta-cyclodextrin by LC-MS/MS analysis; type: ADME, organism-based, Canis lupus familiaris; conditions: in vivo
[14] = test system: Human immunodeficiency virus 1; assay: Antiviral activity against wild type HIV-1 NLRepRlucP373S harboring deltaV370 mutant infected in human MT2 cells assessed as inhibition of viral growth measured after 4 to 5 days by Dual luciferase reporter assay; type: functional, organism-based; conditions: Human immunodeficiency virus 1, NLRepRlucP373S
[15] = Metabolic stability in human liver microsomes assessed as half life at 0.5 uM in presence of NADPH by LC-MS/MS analysis; type: ADME, Microsome
[16] = test system: Human immunodeficiency virus 1; assay: Antiviral activity against wild type HIV-1 NLRepRlucP373S harboring V362I/V370A mutant infected in human MT2 cells assessed as inhibition of viral growth measured after 4 to 5 days by Dual luciferase reporter assay; type: functional, organism-based; conditions: Human immunodeficiency virus 1, NLRepRlucP373S
[17] = test system: Human immunodeficiency virus 1; assay: Antiviral activity against wild type HIV-1 NLRepRlucP373S harboring R361K/V362I/L363M mutant infected in human MT2 cells assessed as inhibition of viral growth measured after 4 to 5 days by Dual luciferase reporter assay; type: functional, organism-based; conditions: Human immunodeficiency virus 1, NLRepRlucP373S
[18] = Clearance in Sprague-Dawley rat at 1 mg/kg, iv by LC-MS/MS analysis; type: ADME, organism-based; conditions: in vivo
[19] = Solubility of the compound in FeSSIF at pH 5.0; type: ADME
[20] = Volume of distribution at steady state in Beagle dog at 1 mg/kg, iv by LC-MS/MS analysis; type: ADME, organism-based, Canis lupus familiaris; conditions: in vivo, read-out: Vdss
[21] = MRT in Sprague-Dawley rat at 1 mg/kg, iv by LC-MS/MS analysis; type: ADME, organism-based; conditions: in vivo
[22] = AUCt in Sprague-Dawley rat at 5 mg/kg, po by LC-MS/MS analysis; type: ADME, organism-based; parameters: dose 5 mg/kg, route po; conditions: in vivo
[23] = Cmax in Sprague-Dawley rat at 5 mg/kg, po by LC-MS/MS analysis; type: ADME, organism-based; parameters: dose 5 mg/kg, route po; conditions: in vivo
Albumin = Albumin (Homo sapiens, UniProt P02768); assay: Protein binding in human serum albumin assessed as fraction bound at 53 nM incubated for 1 hrs by ultracentrifugation method; type: ADME, cell-free; conditions: read-out: PPB (converted)
[24] = Clearance in Beagle dog at 1 mg/kg, iv by LC-MS/MS analysis; type: ADME, organism-based, Canis lupus familiaris; conditions: in vivo
[25] = AUCt in Beagle dog at 5 mg/kg, po administered as solution in 98% citrate buffer/2% sulfobutylether-beta-cyclodextrin by LC-MS/MS analysis; type: ADME, organism-based, Canis lupus familiaris; parameters: dose 5 mg/kg, route po; conditions: in vivo
[26] = Cmax in Beagle dog at 5 mg/kg, po administered as spray-dried dispersion in 99.5% water/0.5% methocel E4M by LC-MS/MS analysis; type: ADME, organism-based, Canis lupus familiaris; parameters: dose 5 mg/kg, route po; conditions: in vivo
[27] = Oral bioavailability in Sprague-Dawley rat at 5 mg/kg by LC-MS/MS analysis; type: ADME, organism-based; conditions: in vivo
[28] = test system: Human immunodeficiency virus 1; assay: Antiviral activity against wild type HIV-1 NLRepRlucP373S harboring A326T/V362I/V370A mutant infected in human MT2 cells assessed as inhibition of viral growth measured after 4 to 5 days by Dual luciferase reporter assay; type: functional, organism-based; conditions: Human immunodeficiency virus 1, NLRepRlucP373S
[29] = Solubility of compound in FaSSIF at pH 6.5; type: ADME
[30] = test system: Human immunodeficiency virus 1; assay: Antiviral activity against wild type HIV-1 NLRepRlucP373S infected in human MT2 cells assessed as inhibition of viral growth measured after 4 to 5 days by Dual luciferase reporter assay; type: functional, organism-based; conditions: Human immunodeficiency virus 1, NLRepRlucP373S
[31] = Half life in Sprague-Dawley rat at 1 mg/kg, iv by LC-MS/MS analysis; type: ADME, organism-based; conditions: in vivo
[32] = test system: Human immunodeficiency virus 1; assay: Antiviral activity against wild type HIV-1 NLRepRlucP373S infected in human MT2 cells assessed as inhibition of viral growth measured after 4 to 5 days in presence of 10% FBS and 40% human serum supplemented with 27 mg/mL of human serum albumin by Dual luciferase reporter assay; type: functional, organism-based; conditions: Human immunodeficiency virus 1, NLRepRlucP373S

Albumin, sequence (P02768 whole entry): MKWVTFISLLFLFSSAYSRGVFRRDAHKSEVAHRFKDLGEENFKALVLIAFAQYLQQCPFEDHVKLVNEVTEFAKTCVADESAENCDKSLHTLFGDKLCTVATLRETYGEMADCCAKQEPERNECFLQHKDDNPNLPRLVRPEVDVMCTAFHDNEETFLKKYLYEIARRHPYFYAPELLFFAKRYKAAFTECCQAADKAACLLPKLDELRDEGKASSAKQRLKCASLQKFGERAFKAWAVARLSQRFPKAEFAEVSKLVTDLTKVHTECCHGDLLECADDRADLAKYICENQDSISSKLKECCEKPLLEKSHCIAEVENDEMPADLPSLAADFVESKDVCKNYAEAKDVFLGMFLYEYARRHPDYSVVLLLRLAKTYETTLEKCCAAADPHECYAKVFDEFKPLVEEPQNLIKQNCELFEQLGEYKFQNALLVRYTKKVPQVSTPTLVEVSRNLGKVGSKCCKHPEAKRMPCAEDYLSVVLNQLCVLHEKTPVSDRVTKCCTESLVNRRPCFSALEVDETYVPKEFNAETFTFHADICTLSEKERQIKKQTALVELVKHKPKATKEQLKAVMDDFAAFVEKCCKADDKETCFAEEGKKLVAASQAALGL

SMILES: C=C(C)[C@@H]1CC[C@]2(NCC[C@]3(O)CC[C@@H](S(C)(=O)=O)CC3)CC[C@]3(C)[C@H](CC[C@@H]4[C@@]5(C)CC=C(C6=CC[C@](CF)(C(=O)O)CC6)C(C)(C)[C@@H]5CC[C@]43C)[C@@H]12
- Vd [1]: 0.8 L/kg
- fold change (FC) [2]: 5.8
- half-life [3]: 13.4 h
- AUC(0-t) [4]: 35.3 µM·h
- MRT [5]: 13.2 h
- EC50 [6]: 3 nM
- bioavailability [7]: 31%
- CC50 [8]: 21000 nM
- half-life at 0.5 µM [9]: > 2 h
- half-life at 0.5 µM [10]: 1.42 h
- EC50 [11]: 6.4 nM
- Cmax [12]: 1610 nM
- bioavailability [13]: 21%
- EC50 [14]: 5.1 nM
- half-life at 0.5 µM [15]: 1.38 h
- EC50 [16]: 2 nM
- EC50 [17]: 4.5 nM
- clearance [18]: 3.5 mL/min/kg
- solubility [19]: > 700 µM
- Vd [20]: 0.31 L/kg
- MRT [21]: 3.8 h
- AUC(0-t) [22]: 8.11 µM·h
- Cmax [23]: 830 nM
- fraction unbound at 1 h, 0.053 µM (Albumin): 0.11
- clearance [24]: 0.38 mL/min/kg
- AUC(0-t) [25]: 23.3 µM·h
- Cmax [26]: 1960 nM
- bioavailability [27]: 24%
- EC50 [28]: 4.3 nM
- solubility [29]: 21 µM (≈ 16.2 µg/mL)
- EC50 [30]: 1.6 nM
- half-life [31]: 4.2 h
- EC50 [32]: 9.3 nM
